Peptide text beside a SMILES is read from it.
What was measured:
CRF2R = target: T1, CRF2R (Homo sapiens, UniProt Q13324); assay: CRF2R agonist activation (EC50 / Emax), called comparative CRF binding; format: cell-based; settings: for EC50: read-out: CRF2R EC50; for Emax: read-out: CRF2R Emax
T1 sequence (Q13324 1-411): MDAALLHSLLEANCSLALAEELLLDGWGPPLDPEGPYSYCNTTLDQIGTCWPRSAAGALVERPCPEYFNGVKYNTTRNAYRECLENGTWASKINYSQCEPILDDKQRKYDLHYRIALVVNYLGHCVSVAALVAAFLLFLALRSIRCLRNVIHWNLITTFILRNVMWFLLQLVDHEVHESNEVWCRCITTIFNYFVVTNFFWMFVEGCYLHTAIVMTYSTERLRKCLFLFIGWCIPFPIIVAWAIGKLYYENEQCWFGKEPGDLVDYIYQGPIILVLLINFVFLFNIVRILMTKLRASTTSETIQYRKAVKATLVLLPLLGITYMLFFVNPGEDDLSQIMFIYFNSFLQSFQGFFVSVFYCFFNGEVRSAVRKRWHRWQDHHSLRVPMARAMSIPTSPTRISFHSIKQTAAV
Procedure, shortened: (§1)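 Peptides are tested on cells bearing CRF1R or CRF2R, full length or as ligand-binding-domain constructs coupled to reporters or G proteins. Activation is scored by cAMP rise, measured in lysates or by CRE-reporter output, against vehicle control.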

CRF1R = target: T2, CRF1R (Homo sapiens, UniProt P34998); assay: CRF1R agonist activation (EC50 / Emax), called comparative CRF binding; format: cell-based; settings: for EC50: read-out: CRF1R EC50; for Emax: read-out: CRF1R Emax
T2 sequence (P34998 24-415): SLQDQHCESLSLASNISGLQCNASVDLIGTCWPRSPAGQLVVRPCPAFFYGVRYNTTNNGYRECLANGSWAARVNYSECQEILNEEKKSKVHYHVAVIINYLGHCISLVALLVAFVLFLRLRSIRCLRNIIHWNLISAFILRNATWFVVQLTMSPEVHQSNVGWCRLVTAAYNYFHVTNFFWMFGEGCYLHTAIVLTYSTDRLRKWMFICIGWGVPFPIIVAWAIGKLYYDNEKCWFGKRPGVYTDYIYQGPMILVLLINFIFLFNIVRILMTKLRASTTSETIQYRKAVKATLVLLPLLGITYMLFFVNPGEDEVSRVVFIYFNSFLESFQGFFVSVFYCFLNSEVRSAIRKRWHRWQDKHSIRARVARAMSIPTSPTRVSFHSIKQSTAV
Procedure, shortened: as §1

Row | Compound | EC50 (CRF2R) | Emax (CRF2R) | EC50 (CRF1R) | Emax (CRF1R)
1 | CC[C@H](C)[C@H](N)C(=O)N[C@H](C(=O)N[C@@H](CC(C)C)C(=O)N[C@@H](CO)C(=O)N[C@@H](CC(C)C)C(=O)N[C@@H](CC(=O)O)C(=O)N[C@H](C(=O)N1CCC[C@H]1C(=O)N[C@H](C(=O)NCC(=O)N[C@@H](CC(C)C)C(=O)N[C@@H](CC(C)C)C(=O)N[C@@H](CCC(N)=O)C(=O)N[C@H](C(=O)N[C@@H](CC(C)C)C(=O)N[C@@H](CC(C)C)C(=O)N[C@@H](CCC(=O)O)C(=O)N[C@@H](CCC(N)=O)C(=O)N[C@@H](C)C(=O)N[C@@H](CCCNC(=N)N)C(=O)N[C@@H](C)C(=O)N[C@@H](CC(=O)O)C(=O)N[C@@H](C)C(=O)N[C@@H](C)C(=O)N[C@@H](CCCNC(=N)N)C(=O)N[C@@H](CCC(=O)O)C(=O)N[C@@H](CCC(N)=O)C(=O)N[C@@H](C)C(=O)N[C@H](C(=O)N[C@H](C(=O)N[C@@H](CC(N)=O)C(=O)N[C@@H](C)C(=O)N[C@@H](CCCNC(=N)N)C(=O)N[C@H](C(=O)N[C@@H](CC(C)C)C(=O)N[C@@H](C)C(=O)N[C@@H](CCCNC(=N)N)C(=O)N[C@H](C(N)=O)C(C)C)[C@@H](C)CC)[C@@H](C)O)[C@@H](C)O)[C@@H](C)CC)[C@@H](C)CC)C(C)C)C(C)C [compound 130] (H-IVLSLDVPIGLLQILLEQARADAAREQATTNARILARV-NH2; N-terminus assumed) | 8.57 nM | 92% | > 100 nM | 9%
2 | CC[C@H](C)[C@H](N)C(=O)N[C@H](C(=O)N[C@@H](CC(C)C)C(=O)N[C@@H](CO)C(=O)N[C@@H](CC(C)C)C(=O)N[C@@H](CC(=O)O)C(=O)N[C@H](C(=O)N1CCC[C@H]1C(=O)N[C@H](C(=O)NCC(=O)N[C@@H](CC(C)C)C(=O)N[C@@H](CC(C)C)C(=O)N[C@@H](CCC(N)=O)C(=O)N[C@H](C(=O)N[C@@H](CC(C)C)C(=O)N[C@@H](CC(C)C)C(=O)N[C@@H](CCC(=O)O)C(=O)N[C@@H](CCC(N)=O)C(=O)N[C@@H](C)C(=O)N[C@@H](CCCCN)C(=O)N[C@@H](C)C(=O)N[C@@H](CC(=O)O)C(=O)N[C@@H](C)C(=O)N[C@@H](C)C(=O)N[C@@H](CCCNC(=N)N)C(=O)N[C@@H](CCC(=O)O)C(=O)N[C@@H](CCC(N)=O)C(=O)N[C@@H](C)C(=O)N[C@H](C(=O)N[C@H](C(=O)N[C@@H](CC(N)=O)C(=O)N[C@@H](C)C(=O)N[C@@H](CCCNC(=N)N)C(=O)N[C@H](C(=O)N[C@@H](CC(C)C)C(=O)N[C@@H](C)C(=O)N[C@@H](CCCNC(=N)N)C(=O)N[C@H](C(N)=O)C(C)C)[C@@H](C)CC)[C@@H](C)O)[C@@H](C)O)[C@@H](C)CC)[C@@H](C)CC)C(C)C)C(C)C [compound 131] (H-IVLSLDVPIGLLQILLEQAKADAAREQATTNARILARV-NH2; N-terminus assumed) | 5.25 nM | 91% | > 100 nM | 8%
3 | CC[C@H](C)[C@H](N)C(=O)N[C@H](C(=O)N[C@@H](CC(C)C)C(=O)N[C@@H](CO)C(=O)N[C@@H](CC(C)C)C(=O)N[C@@H](CC(=O)O)C(=O)N[C@H](C(=O)N1CCC[C@H]1C(=O)N[C@H](C(=O)NCC(=O)N[C@@H](CC(C)C)C(=O)N[C@@H](CC(C)C)C(=O)N[C@@H](CCC(N)=O)C(=O)N[C@H](C(=O)N[C@@H](CC(C)C)C(=O)N[C@@H](CC(C)C)C(=O)N[C@@H](CCC(=O)O)C(=O)N[C@@H](CCC(N)=O)C(=O)N[C@@H](CCC(=O)O)C(=O)N[C@@H](CCCCN)C(=O)N[C@@H](CCC(=O)O)C(=O)N[C@@H](CCCCN)C(=O)N[C@@H](CCCCN)C(=O)N[C@@H](CCCNC(=N)N)C(=O)N[C@@H](CCCCN)C(=O)N[C@@H](CCC(=O)O)C(=O)N[C@H](C(=O)N[C@@H](CC(N)=O)C(=O)N[C@@H](C)C(=O)N[C@@H](CCCNC(=N)N)C(=O)N[C@H](C(=O)N[C@@H](CC(C)C)C(=O)N[C@@H](C)C(=O)N[C@@H](CCCNC(=N)N)C(=O)N[C@H](C(N)=O)C(C)C)[C@@H](C)CC)[C@@H](C)O)[C@@H](C)CC)[C@@H](C)CC)C(C)C)C(C)C [compound 132] (H-IVLSLDVPIGLLQILLEQEKEKKRKETNARILARV-NH2; N-terminus assumed) | 7.53 nM | 88% | > 100 nM | 8%
